Data from patent US10336701B2, “Pyridin-2-one derivatives of formula (II) useful as EP3 receptor antagonists” (Janssen Pharmaceutica NV, priority 2017, dated 2019).

What was measured:
[1] = target: T1, EP3 receptor (Homo sapiens, UniProt P43115); experiment: [3H]-PGE2 binding assay (EP3 competition binding); conditions: read-out: [3H]-PGE2 Binding Ki
T1 construct: purchased Millipore HTS092M
T1 sequence (P43115 1-390): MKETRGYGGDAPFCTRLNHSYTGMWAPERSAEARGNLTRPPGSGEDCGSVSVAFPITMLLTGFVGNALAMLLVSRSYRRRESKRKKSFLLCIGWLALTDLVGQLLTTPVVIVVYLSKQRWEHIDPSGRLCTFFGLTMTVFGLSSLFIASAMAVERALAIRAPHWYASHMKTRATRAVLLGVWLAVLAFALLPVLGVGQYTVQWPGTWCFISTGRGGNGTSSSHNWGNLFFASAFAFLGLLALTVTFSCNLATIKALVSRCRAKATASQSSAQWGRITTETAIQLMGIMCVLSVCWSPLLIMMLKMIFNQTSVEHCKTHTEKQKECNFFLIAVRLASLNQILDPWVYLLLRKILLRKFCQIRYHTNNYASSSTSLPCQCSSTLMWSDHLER
Outline: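 Scintillation-bead competition binding with EP3 membranes (2 μg/well), 2 nM [3H]-PGE2, 0.1% DMSO, in 50 mM Tris, 10 mM MgCl2, 1 mM EDTA, pH 7.4.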

[2] = target: T1, EP3 receptor; experiment: CHO cell cAMP assay (forskolin and sulprostone stimulated, HTRF); type: cell-based; conditions: CHO cells; sulprostone 700 nM (EC80) and FSK 2 μM (EC70), 37° C. for 30 minutes; read-out: CHO_cAMP IC50

Row | SMILES | Ki [1] | IC50 [2]
1 | CCn1ncc2c(F)cc(-c3ccc(C4CCN(S(=O)(=O)C(C)C)C4)c(=O)[nH]3)cc21 (centres unmarked) [compound 213, 6-(1-ethyl-4-fluoro-1H-indazol-6-yl)-3-(1-(isopropylsulfonyl)pyrrolidin-3-yl)pyridin-2(1H)-one] | 0.007 µM | 0.281 µM
2 | CCn1ncc2c(F)cc(-c3ccc(C4(O)CN(S(=O)(=O)C(C)C)C4)c(=O)[nH]3)cc21 [compound 298, 6-(1-ethyl-4-fluoro-1H-indazol-6-yl)-3-(3-hydroxy-1-(isopropylsulfonyl)azetidin-3-yl)pyridin-2(1H)-one] | 0.979 µM | 8.3 µM
3 | CC1(c2ccc(-c3ccc4ccccc4c3)[nH]c2=O)Cn2cnnc2N1 (centres unmarked) [compound 167, 3-[6-methyl-5H,6H,7H-imidazo[2,1-c][1,2,4]triazol-6-yl]-6-(naphthalen-2-yl)-1,2-dihydropyridin-2-one] | 0.151 µM | 0.779 µM
4 | CCn1ncc2c(F)cc(-c3ccc(C(Cc4noc(=O)[nH]4)C(C)C)c(=O)[nH]3)cc21 (centres unmarked) [Compound #99, 3-(2-(6-(1-ethyl-4-fluoro-1H-indazol-6-yl)-2-oxo-1,2-dihydropyridin-3-yl)-3-methylbutyl)-1,2,4-oxadiazol-5(4H)-one] | 0.921 µM | 4.88 µM
5 | CC(C)C(F)(C(=O)NS(C)(=O)=O)c1ccc(-c2ccc3ccccc3c2)[nH]c1=O (centres unmarked) [compound 224, 2-fluoro-3-methyl-N-(methylsulfonyl)-2-(6-(naphthalen-2-yl)-2-oxo-1,2-dihydropyridin-3-yl)butanamide] | 1.29 µM | 10.8 µM
6 | CCn1ncc2c(F)cc(-c3ccc(C4(O)CCCN(S(=O)(=O)C(C)C)C4)c(=O)[nH]3)cc21 (centres unmarked) [compound 295, 6-(1-ethyl-4-fluoro-1H-indazol-6-yl)-3-(3-hydroxy-1-(isopropylsulfonyl)piperidin-3-yl)pyridin-2(1H)-one] | 0.002 µM | 0.079 µM
7 | CC(C)C(C(=O)NC1CCNC1)c1ccc(-c2ccc3cccc(F)c3c2)[nH]c1=O (centres unmarked) [compound 178, 2-(6-(8-fluoronaphthalen-2-yl)-2-oxo-1,2-dihydropyridin-3-yl)-3-methyl-N-(pyrrolidin-3-yl)butanamide] | 0.02 µM | 0.22 µM
8 | CC(C)C1(c2ccc(-c3ccc4cccc(F)c4c3)[nH]c2=O)CNC(NC#N)=N1 (centres unmarked) [compound 291, N-(4-(6-(8-fluoronaphthalen-2-yl)-2-oxo-1,2-dihydropyridin-3-yl)-4-isopropyl-4,5-dihydro-1H-imidazol-2-yl)cyanamide] | 0.003 µM | 0.019 µM
9 | CC(C)C(c1ccc(-c2ccc3cccc(F)c3c2)[nH]c1=O)N(C)C(N)=O (centres unmarked) [compound 265, 1-(1-(6-(8-fluoronaphthalen-2-yl)-2-oxo-1,2-dihydropyridin-3-yl)-2-methylpropyl)-1-methylurea] | 0.034 µM | 0.249 µM
10 | CCC(CC)(CC1OC(=O)NC1=O)c1ccc(-c2ccc3cccc(F)c3c2)[nH]c1=O (centres unmarked) [compound 9, 5-(2-ethyl-2-(6-(8-fluoronaphthalen-2-yl)-2-oxo-1,2-dihydropyridin-3-yl)butyl)oxazolidine-2,4-dione] | 0.023 µM | 0.108 µM
11 | O=C1NC(=O)C(CC2(c3ccc(-c4ccc5cccc(F)c5c4)[nH]c3=O)CCCC2)O1 (centres unmarked) [compound 7, 5-((1-(6-(8-fluoronaphthalen-2-yl)-2-oxo-1,2-dihydropyridin-3-yl)cyclopentyl)methyl) oxazolidine-2,4-dione] | 0.039 µM | 0.149 µM
12 | CC(C)C1(Cc2ccc(-c3ccc4cccc(F)c4c3)[nH]c2=O)NC(=O)NC1=O (centres unmarked) [compound 263, 5-((6-(8-fluoronaphthalen-2-yl)-2-oxo-1,2-dihydropyridin-3-yl)methyl)-5-isopropylimidazolidine-2,4-dione] | 0.108 µM | 0.336 µM
13 | CCC(/C=C1/OC(=O)NC1=O)(CC)c1ccc(-c2ccc3c(c2)OC(C)(C)C=C3)[nH]c1=O [compound 28, 5-(2-(6-(2,2-dimethyl-2H-chromen-7-yl)-2-oxo-1,2-dihydropyridin-3-yl)-2-ethylbutylidene)oxazolidine-2,4-dione] | 5.62 µM | > 20 µM
